BindingDB's records for doi:10.1021/jm00017a004 (Centre De Recherche Pierre Fabre, 1995)

Biological target: Squalene monooxygenase (Sus scrofa)
Assay: In vitro inhibitory activity against pig liver microsomal squalene epoxidase

IC50 | Compound
0.06 µM | CCN(C/C=C/C#CC(C)(C)C)Cc1cccc(OC[Si](C)(C)c2ccc(F)cc2)c1 [((E)-6,6-Dimethyl-hept-2-en-4-ynyl)-ethyl-(3-{[(4-fluoro-phenyl)-dimethyl-silanyl]-methoxy}-benzyl)-amine]
0.4 µM | CCN(C/C=C/C#CC(C)(C)C)Cc1cccc(OC[Si](C)(C)c2ccc(Cl)cc2)c1 [(3-{[(4-Chloro-phenyl)-dimethyl-silanyl]-methoxy}-benzyl)-((E)-6,6-dimethyl-hept-2-en-4-ynyl)-ethyl-amine]
5 µM | CCN(C/C=C/C#CC(C)(C)C)Cc1cccc(OC[Si](C)(C)c2ccc(C(=O)C(F)(F)F)cc2)c1 [1-{4-[(3-{[((E)-6,6-Dimethyl-hept-2-en-4-ynyl)-ethyl-amino]-methyl}-phenoxymethyl)-dimethyl-silanyl]-phenyl}-2,2,2-trifluoro-ethanone]
0.12 µM | CCN(C/C=C/C#CC(C)(C)C)Cc1cccc(OC[Si](C)(C)c2ccc(C)cc2)c1 [((E)-6,6-Dimethyl-hept-2-en-4-ynyl)-{3-[(dimethyl-p-tolyl-silanyl)-methoxy]-benzyl}-ethyl-amine]
5 µM | CCN(C/C=C/C#CC(C)(C)C)Cc1cccc(OC[Si](C)(C)c2ccc(C(N)=O)cc2)c1 [4-[(3-{[((E)-6,6-Dimethyl-hept-2-en-4-ynyl)-ethyl-amino]-methyl}-phenoxymethyl)-dimethyl-silanyl]-benzamide]
8 µM | CCN(C/C=C/C#CC(C)(C)C)Cc1cccc(OC[Si](C)(C)c2ccc(S)cc2)c1 [4-[(3-{[((E)-6,6-Dimethyl-hept-2-en-4-ynyl)-ethyl-amino]-methyl}-phenoxymethyl)-dimethyl-silanyl]-benzenethiol]
0.1 µM | CCN(C/C=C/C#CC(C)(C)C)Cc1cccc(OC[Si](C)(C)c2ccc(C=O)cc2)c1 [4-[(3-{[((E)-6,6-Dimethyl-hept-2-en-4-ynyl)-ethyl-amino]-methyl}-phenoxymethyl)-dimethyl-silanyl]-benzaldehyde]
8 µM | CCN(C/C=C/C#CC(C)(C)C)Cc1cccc(OC[Si](C)(C)c2ccc(O)cc2)c1 [4-[(3-{[((E)-6,6-Dimethyl-hept-2-en-4-ynyl)-ethyl-amino]-methyl}-phenoxymethyl)-dimethyl-silanyl]-phenol]
0.21 µM | CCN(C/C=C/C#CC(C)(C)C)Cc1cccc(OC[Si](C)(C)c2ccc(Br)cc2)c1 [(3-{[(4-Bromo-phenyl)-dimethyl-silanyl]-methoxy}-benzyl)-((E)-6,6-dimethyl-hept-2-en-4-ynyl)-ethyl-amine]

Further lines, the compound ahead of its results:

Compound | IC50
CCN(C/C=C/C#CC(C)(C)C)Cc1cccc(OC[Si](C)(C)C2CCCCC2)c1 [{3-[(Cyclohexyl-dimethyl-silanyl)-methoxy]-benzyl}-((E)-6,6-dimethyl-hept-2-en-4-ynyl)-ethyl-amine] | 20 µM
CCN(C/C=C/C#CC(C)(C)C)Cc1cccc(OC[Si](C)(C)c2cccc(C)c2)c1 [((E)-6,6-Dimethyl-hept-2-en-4-ynyl)-{3-[(dimethyl-m-tolyl-silanyl)-methoxy]-benzyl}-ethyl-amine] | 3 µM
CCN(C/C=C/C#CC(C)(C)C)Cc1cccc(OC[Si](C)(C)c2ccccc2-c2ccsc2)c1 [((E)-6,6-Dimethyl-hept-2-en-4-ynyl)-(3-{[dimethyl-(2-thiophen-3-yl-phenyl)-silanyl]-methoxy}-benzyl)-ethyl-amine] | 10 µM
CCN(C/C=C/C#CC(C)(C)C)Cc1cccc(OC[Si](C)(C)c2ccccc2C(F)(F)F)c1 [((E)-6,6-Dimethyl-hept-2-en-4-ynyl)-(3-{[dimethyl-(2-trifluoromethyl-phenyl)-silanyl]-methoxy}-benzyl)-ethyl-amine] | 0.07 µM
CCN(C/C=C/C#CC(C)(C)C)Cc1cccc(OC[Si](C)(C)c2ccc(OC)cc2)c1 [((E)-6,6-Dimethyl-hept-2-en-4-ynyl)-ethyl-(3-{[(4-methoxy-phenyl)-dimethyl-silanyl]-methoxy}-benzyl)-amine] | 0.87 µM
CCN(C/C=C/C#CC(C)(C)C)Cc1cccc(OC[Si](C)(C)CCc2ccccc2)c1 [((E)-6,6-Dimethyl-hept-2-en-4-ynyl)-{3-[(dimethyl-phenethyl-silanyl)-methoxy]-benzyl}-ethyl-amine] | > 10 µM
CCN(CC#CC#CC(C)(C)OC)Cc1cccc(OC[Si](C)(C)c2ccccc2C)c1 [{3-[(Dimethyl-o-tolyl-silanyl)-methoxy]-benzyl}-ethyl-(6-methoxy-6-methyl-hepta-2,4-diynyl)-amine] | 0.07 µM
CCN(C/C=C/C#CC(C)(C)C)Cc1cccc(OC[Si](C)(C)Cc2ccccc2)c1 [{3-[(Benzyl-dimethyl-silanyl)-methoxy]-benzyl}-((E)-6,6-dimethyl-hept-2-en-4-ynyl)-ethyl-amine] | 0.13 µM
C=Cc1ccc([Si](C)(C)COc2cccc(CN(CC)C/C=C/C#CC(C)(C)C)c2)cc1 [((E)-6,6-Dimethyl-hept-2-en-4-ynyl)-(3-{[dimethyl-(4-vinyl-phenyl)-silanyl]-methoxy}-benzyl)-ethyl-amine] | 0.07 µM
